Experimental data published in patent US8754115B2, “Fungicidal pyrazoles” (E I du Pont de Nemours and Company, priority 2010, dated 2014).
Marks after values point to notes of the source that are not given here.

Legend:
Assay type in all cases: in vivo
[1] = tested on: Puccinia recondite f. sp. tritici; assay: Test E2: preventive spray on wheat seedlings, visual disease rating (wheat leaf rust)
Text: (§1) General protocol for preparing test suspensions for Tests A-F: the test compounds were first dissolved in acetone in an amount equal to 3% of the final volume and then suspended at the desired concentration (in ppm) in acetone and purified water (50/50 mix by volume) containing 250 ppm of the surfactant Trem® 014 (polyhydric alcohol esters). The resulting test suspensions were then used in Tests A-F. Spraying a 200 ppm test suspension to the point of run-off on the test plants was the equivalent of a rate of 800 g/ha. Unless otherwise indicated, the rating values indicate a 200 ppm test suspension was used. (An asterisk “*” next to the rating value indicates a 40 ppm test suspension was used.)
The test suspension was sprayed to the point of run-off on wheat seedlings. The following day the seedlings were inoculated with a spore suspension of Puccinia recondite f. sp. tritici (the causal agent of wheat leaf rust) and incubated in a saturated atmosphere at 20° C. for 24 h, and then moved to a growth chamber at 20° C. for 7 days, after which time visual disease ratings were made.
(§2) Results for Tests A-F are given in Table A. In the Table, a rating of 100 indicates 100% disease control and a rating of 0 indicates no disease control (relative to the controls). A dash (-) indicates no test results. An asterisk “*” next to the rating value indicates a 40 ppm test suspension was used.

[2] = tested on: Botrytis cinerea; assay: Test A: preventive spray on tomato seedlings, visual disease rating (tomato Botrytis)
Text: as §1
The test suspension was sprayed to the point of run-off on tomato seedlings. The following day the seedlings were inoculated with a spore suspension of Botrytis cinerea (the causal agent of tomato Botrytis) and incubated in saturated atmosphere at 20° C. for 48 h, and then moved to a growth chamber at 24° C. for 3 days, after which time visual disease ratings were made.
as §2

[3] = tested on: Septoria tritici; assay: Test D: preventive spray on wheat seedlings, visual disease rating (wheat leaf blotch)
Text: as §1
The test suspension was sprayed to the point of run-off on wheat seedlings. The following day the seedlings were inoculated with a spore suspension of Septoria tritici (the causal agent of wheat leaf blotch) and incubated in saturated atmosphere at 24° C. for 48 h, and then moved to a growth chamber at 20° C. for 19 days, after which time visual disease ratings were made.
as §2

[4] = tested on: Blumeria graminis f. sp. tritici; assay: Test F: preventive spray on wheat seedlings, visual disease rating (wheat powdery mildew)
Text: as §1
The test suspension was sprayed to the point of run-off on wheat seedlings. The following day the seedlings were inoculated with a spore dust of Blumeria graminis f. sp. tritici, (also known as Erysiphe graminis f. sp. tritici, the causal agent of wheat powdery mildew) and incubated in a growth chamber at 20° C. for 8 days, after which time visual disease ratings were made.
as §2

[5] = asterisk: 40 ppm test suspension
[6] = no asterisk: standard test suspension, not 40 ppm
[7] = no asterisk: standard test suspension, not 40 ppm, 100 = 100% disease control, 0 = none

| SMILES | Test E2 rating (% disease control) [1, 5] | Test A rating (% disease control) [2, 5] | Test D rating (% disease control) [3, 5] | Test F rating (% disease control) [4, 5] | Test E2 rating (% disease control) [1, 6] [%] | Test D rating (% disease control) [3, 6] [%] | Test F rating (% disease control) [4, 6] [%] | Test A rating (% disease control) [2, 7] [%] |
| --- | --- | --- | --- | --- | --- | --- | --- | --- |
| Cc1nn(C)c(-c2ccc(F)cc2I)c1C(O)c1ccc(F)cc1Cl (single isomer, unassigned) [compound 104] | 97* % | 0* % | 98* % | 72* % | – | – | – | – |
| Cc1nn(C)c(-c2ccc(Cl)cc2Cl)c1C(O)c1ccc(F)cc1Cl (stereo not shown) [compound 100] | – | – | – | – | 100 | 100 | 99 | – |
| Cn1nc(Cl)c(C(O)c2ccc(F)cc2Br)c1-c1c(F)cccc1F (stereo not shown) [compound 136] | – | – | – | – | 100 | 100 | 100 | 100 |
| Cc1nn(C)c(-c2c(F)cc(Br)cc2F)c1C(O)c1ccc(F)cc1F (stereo not shown) [compound 106] | – | – | – | – | 97 | 100 | 0 | 98 |
| Cc1nn(C)c(-c2c(F)cccc2F)c1C(SC#N)c1ccc(F)cc1Cl (stereo not shown) [Compound 111] | – | – | – | – | 100 | 100 | 100 | 100 |
| COc1nn(C)c(-c2c(F)cc(F)cc2F)c1C(O)c1c(F)cccc1Cl (stereo not shown) [compound 155] | 100* % | 99* % | 100* % | 99* % | – | – | – | – |
| Cn1nc(Br)c(C(O)c2ccc(F)cc2Cl)c1-c1c(F)cccc1Cl (stereo not shown) [compound 148] | – | – | – | – | 100 | 100 | 99 | 100 |
| COc1nn(C)c(-c2c(F)cccc2Cl)c1C(O)c1ccc(F)cc1Cl (stereo not shown) [compound 120] | – | – | – | – | 100 | 100 | 100 | 100 |
| COc1nn(C)c(-c2c(F)cc(F)cc2F)c1C(O)c1ccc(F)cc1Cl (stereo not shown) [compound 152] | 100* % | 100* % | 100* % | 100* % | – | – | – | – |
| COc1nn(C)c(-c2ccc(F)cc2Cl)c1C(O)c1ccc(F)cc1Cl (stereo not shown) [compound 118] | – | – | – | – | 99 | 100 | 100 | 100 |
| Cc1nn(C)c(-c2c(F)cccc2Cl)c1C(SC#N)c1ccc(F)cc1Cl (stereo not shown) [Compound 121] | 100* % | 97* % | 100* % | 100* % | – | – | – | – |
| COCOC(c1ccc(F)cc1Cl)c1c(C)nn(C)c1-c1c(F)cccc1F (stereo not shown) [Compound 110] | 98* % | 0* % | 100* % | 99* % | – | – | – | – |
| Cn1nc(Br)c(C(O)c2ccc(F)cc2Br)c1-c1c(F)cccc1Cl (stereo not shown) [compound 132] | 99* % | – | 100* % | – | – | – | 100 | 0 |
| Cc1nn(C)c(-c2c(F)cccc2F)c1C(OCC#N)c1ccc(F)cc1Cl (stereo not shown) [Compound 107] | 99* % | 9* % | 99* % | 99* % | – | – | – | – |
| Cc1cc(F)ccc1C(O)c1c(Br)nn(C)c1-c1c(F)cccc1F (stereo not shown) [compound 165] | – | – | – | – | 100 | 100 | 100 | 100 |
| Cn1nc(Cl)c(C(O)c2ccc(F)cc2Br)c1-c1c(F)cccc1Cl (stereo not shown) [compound 134] | – | – | – | – | 100 | 100 | 99 | 100 |
| COc1nn(C)c(-c2c(F)cccc2F)c1C(O)c1ccc(F)cc1F (stereo not shown) [compound 156] | 99* % | 100* % | 100* % | 99* % | – | – | – | – |
| Cn1nc(Cl)c(C(O)c2ccc(F)cc2Cl)c1-c1c(F)cccc1F (stereo not shown) [compound 137] | – | – | – | – | 100 | 100 | 100 | 100 |
| C=CCOC(c1ccc(F)cc1Cl)c1c(C)nn(C)c1-c1c(F)cccc1F (stereo not shown) [Compound 109] | 98* % | 0* % | 100* % | 97* % | – | – | – | – |
| Cn1nc(Br)c(C(O)c2ccc(F)cc2Br)c1-c1ccc(F)cc1Cl (stereo not shown) [compound 164] | – | – | – | – | 100 | 100 | 0 | 100 |
| Cc1nn(C)c(-c2c(Cl)cncc2Cl)c1C(O)c1ccc(F)cc1F (stereo not shown) [compound 167] | 0* % | 0* % | 58* % | 0* % | – | – | – | – |
| Cc1nn(C)c(-n2ccnc2C)c1C(O)c1ccc(F)cc1F (stereo not shown) [compound 146] | – | – | – | – | 17 | 18 | 0 | 0 |
| COc1cc(F)c(-c2c(C(O)c3c(F)cc(F)cc3F)c(C)nn2C)c(F)c1 (stereo not shown) [compound 173] | 100* % | 87* % | 100* % | 95* % | – | – | – | – |
| Cc1nn(C)c(-c2ccc(Cl)cc2Cl)c1C(O)c1ccc(Cl)cc1F (stereo not shown) [compound 101] | – | – | – | – | 99 | 100 | 72 | – |
